In this test the target is Human insulin (HI) (Homo sapiens, UniProt P01308). The experiment in a line: ITC, insulin titrated into CBBG, one-site model. The format is binding.

For orientation: Kd means the free concentration of one partner at which half of the binding sites on the other are occupied at equilibrium, for simple one-to-one binding.

Chain of Human insulin (HI) (P01308 25-54): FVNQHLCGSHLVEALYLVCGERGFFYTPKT
Chain of Human insulin (HI) (P01308 90-110): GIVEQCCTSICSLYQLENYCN

`CCOc1ccc(Nc2ccc(/C(=C3C=C/C(=[N+](/CC)Cc4cccc(S(=O)(=O)[O-])c4)C=C/3C)c3ccc(N(CC)Cc4cccc(S(=O)(=O)O)c4)cc3C)cc2)cc1` [Coomassie Brilliant Blue G-250]: the Kd came to 12.5 µM.

The record behind these values is article doi:10.1101/2020.08.26.267799v1 (biorxiv, 2020).
